The supplement of paper PMC10307832

Columns and labels:
Assay in all cases: relative viability (nuclei count vs DMSO), 5 days (fraction); higher = more cells survive
Vismodegib + Phenformin = compound: CS(=O)(=O)c1ccc(C(=O)Nc2ccc(Cl)c(-c3ccccn3)c2)c(Cl)c1 [Vismodegib] + N=C(N)NC(=N)NCCc1ccccc1 [Phenformin] (partner 250 µM)
Summary of the method: (§1)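 Each reported value is a median over duplicate plates. It expresses relative viability: treated-well nuclei count divided by vehicle-well nuclei count. Lung cancer cell lines in 1536-well plates were dosed by pin tool a day after seeding, alone with one drug or with a fixed anchor-drug dose plus five library-drug doses (not always all listed) in √10 steps, and nuclei were counted after 5 days.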

VE-821 + Dasatinib = compound: CS(=O)(=O)c1ccc(-c2cnc(N)c(C(=O)Nc3ccccc3)n2)cc1 [VE-821] + Cc1nc(Nc2ncc(C(=O)Nc3c(C)cccc3Cl)s2)cc(N2CCN(CCO)CC2)n1 [Dasatinib] (partner 0.075 µM)
Summary of the method: as §1

VE-821 + OSI-027 = compound: CS(=O)(=O)c1ccc(-c2cnc(N)c(C(=O)Nc3ccccc3)n2)cc1 [VE-821] + COc1cccc2cc(-c3nc([C@H]4CC[C@H](C(=O)O)CC4)n4ncnc(N)c34)[nH]c12 [OSI-027] (partner 0.5 µM)
Summary of the method: as §1

Vismodegib + Trametinib = compound: CS(=O)(=O)c1ccc(C(=O)Nc2ccc(Cl)c(-c3ccccn3)c2)c(Cl)c1 [Vismodegib] + CC(=O)Nc1cccc(-n2c(=O)n(C3CC3)c(=O)c3c(Nc4ccc(I)cc4F)n(C)c(=O)c(C)c32)c1 [Trametinib] (partner 0.02 µM)
Summary of the method: as §1

Cell Line	relative viability (Vismodegib + Phenformin; first compound 0.08 µM)	relative viability (Vismodegib + Phenformin; first compound 0.253 µM)	relative viability (Vismodegib + Phenformin; first compound 0.8 µM)	relative viability (Vismodegib + Phenformin; first compound 2.53 µM)	relative viability (Vismodegib + Phenformin; first compound 8 µM)	relative viability (VE-821 + Dasatinib; first compound 0.08 µM)	relative viability (VE-821 + Dasatinib; first compound 0.253 µM)	relative viability (VE-821 + Dasatinib; first compound 0.8 µM)	relative viability (VE-821 + Dasatinib; first compound 2.53 µM)	relative viability (VE-821 + Dasatinib; first compound 8 µM)	relative viability (VE-821 + OSI-027; first compound 0.08 µM)	relative viability (VE-821 + OSI-027; first compound 0.253 µM)	relative viability (VE-821 + OSI-027; first compound 0.8 µM)	relative viability (VE-821 + OSI-027; first compound 2.53 µM)	relative viability (VE-821 + OSI-027; first compound 8 µM)	relative viability (Vismodegib + Trametinib; first compound 0.08 µM)	relative viability (Vismodegib + Trametinib; first compound 0.253 µM)	relative viability (Vismodegib + Trametinib; first compound 0.8 µM)	relative viability (Vismodegib + Trametinib; first compound 2.53 µM)	relative viability (Vismodegib + Trametinib; first compound 8 µM)
NCI-H460	0.516	0.512	0.561	0.508	0.595	0.58	0.488	0.428	0.261	0.223	0.814	0.628	0.409	0.292	0.0463	0.175	0.132	0.127	0.141	0.107
201T	0.45	0.49	0.423	0.45	0.44	0.588	0.529	0.476	0.434	0.44	0.815	0.672	0.688	0.747	0.381	0.724	0.721	0.737	0.698	0.657
NCI-H1993	0.448	0.531	0.519	0.514	0.498	0.563	0.503	0.523	0.524	0.538	0.532	0.553	0.506	0.468	0.495	0.508	0.607	0.549	0.438	0.492
RERF-LC-KJ	0.422	0.427	0.432	0.437	0.455	0.924	0.651	0.582	0.69	0.582	0.548	0.523	0.535	0.614	0.49	0.847	0.823	0.84	0.826	0.862
NCI-H1755	0.596	0.61	0.611	0.617	0.598	0.455	0.452	0.372	0.413	0.318	0.795	0.709	0.636	0.755	0.632	0.82	0.765	0.78	0.709	0.834
NCI-H1666	0.557	0.587	0.535	0.517	0.565	0.841	0.78	0.816	0.695	0.578	0.903	0.785	0.948	0.936	0.703	0.816	0.852	0.836	0.899	0.904
NCI-H2085	0.698	0.749	0.714	0.718	0.697	0.214	0.259	0.192	0.226	0.202	0.788	0.736	0.489	0.747	0.334	0.551	0.549	0.594	0.621	0.539
